Assay results as given in the NIST ThermoML archive (doi:10.1016/j.jct.2016.01.019).
“And” between values parts separate entries of the source, which are not always exact repeats. Equal values may be shown once.

Experiments:
[1] = refractive index (Na D-line) (dimensionless); xn = mol fraction of the nth substance listed; details: 94.64 kPa, Liquid, Standard Abbe refractometry, x1 = 1
[2] = xn = mol fraction of the nth substance listed; details: 94.64 kPa, Liquid, Vibrating tube method, x1 = 1
[3] = Liquid; for mass density: 94.64 kPa, Vibrating tube method; for vapor or sublimation pressure: Ebulliometric method (Recirculating still)

CC(O)CO (stereo not drawn) [1,2-propanediol] + OCCCO
Details	mass density, [2] [kg/m3]	refractive index, [1]
293.15 K	1036.25	1.43219
298.15 K	1032.61	1.4303
303.15 K	1028.93	1.42921
308.15 K	1025.19	1.42746
313.15 K	1021.42	1.42566
318.15 K	1017.65	1.42386

CC(O)CO (stereo not drawn) [1,2-propanediol]
[3]
Details	mass density [kg/m3]	vapor or sublimation pressure
293.15 K	1036.25	–
298.15 K	1032.61	–
303.15 K	1028.93	–
308.15 K	1025.19	–
313.15 K	1021.42	–
318.15 K	1017.65	–
389.39 K	–	6.67 kPa
396.95 K	–	10 kPa
402.95 K	–	13.33 kPa
408.6 K	–	16.61 kPa
412.95 K	–	19.96 kPa
413.23 K	–	19.99 kPa
417.15 K	–	23.34 kPa
421.2 K	–	26.62 kPa
421.21 K	–	26.66 kPa
424.5 K	–	30 kPa
427.16 K	–	33.33 kPa
427.23 K	–	33.57 kPa
429.55 K	–	36.61 kPa
432.05 K	–	40.01 kPa and 39.99 kPa
433.7 K	–	43.33 kPa
436.07 K	–	46.66 kPa
437.77 K	–	50 kPa
439.74 K	–	53.25 kPa
441.27 K	–	56.74 kPa
443.15 K	–	59.99 kPa
